# Experimental data taken from patent publication US20120190613A1, “ECHINOCANDIN DERIVATIVES” (priority 2009, published 2012).
# Like-named read-outs stand apart in the source and are kept apart here. Marks after values point to notes of the source that are not given here. Starred links: 1 amine or outer side, 2 acyl side, 3 side chain; linkers in the order of their positions; H or OH if unused. Positions of bridges follow the written chain, without caps; N, C: chain ends. Non-standard residues stand in square brackets, D forms with d. Residues, ends and D or L forms follow the SMILES beside them. *: point of attachment. pTerphenylCO(4''-OnC5H11) = CCCCCOc1ccc(-c2ccc(-c3ccc(C(=O)*)cc3)cc2)cc1; Orn(4R-OH,5R-OH) = O=C([C@H](C[C@@H](O)[C@@H](O)N[*:3])N[*:1])[*:2]; Tetradecanoyl(10R,12S-Me2) = CC[C@H](C)C[C@H](C)CCCCCCCCC(=O)*; hTyr(3S-OH,4S-OH) = N[C@H](C(=O)O)[C@H](O)[C@@H](O)c1ccc(O)cc1; Pro(3S-OH,4S-Me) = C[C@H]1CN[C@H](C(=O)O)[C@H]1O; Gln(3R-OH) = NC(=O)C[C@@H](O)[C@H](N)C(=O)O; Pro(3S-OH) = O=C(O)[C@H]1NCC[C@@H]1O; Hyp = O=C(O)[C@@H]1C[C@@H](O)CN1
# Key:
# [1] = system: C. albicans 104 ATCC 90028; test: MIC by broth microdilution against C. albicans; format: cell-based
# Procedure: (§1) MIC values (μg/mL) of echinocandin class compounds of the invention against various Candida and Aspergillus species were obtained as follows. Test organisms were obtained from the American Type Culture Collection (Manassas, Va.). The isolates were maintained at −80 ° C., then thawed and sub-cultured one day prior to testing (seven days for Aspergillus strains).
# (§2) The mouse serum was heat-inactivated for 30 minutes at 56° C., and filtered through a 0.2 μm low protein binding filter unit prior to use.
# (§3) MIC values were determined using broth microdilution. The wells of the daughter plates ultimately contained 180 μL of RPMI-1640 medium with and without mouse serum, 10 μL of drug solution, and 10 μL of yeast or fungal inoculum.
# (§4) Prior to susceptibility testing, fungal isolates were removed from frozen storage, thawed at room temperature, and subcultured to Potato Dextrose Agar. The Candida strains were incubated overnight at 35° C. and the Aspergillus strains for 7 days at 25° C. Yeast colonies were inoculated into sterile saline and adjusted to the turbidity of a 0.5 McFarland standard. Inoculums from Aspergillus strains were prepared by washing the surface of an agar slant with 1 mL of sterile saline containing 0.05% of Tween 20. The resulting colloidial suspensions were adjusted to an optical density of 0.09 to 0.11 at λ 625 nm.
# (§5) Both the yeast and filamentous fungus suspensions were further diluted 1:100 in RPMI-1640 medium and dispensed into sterile reservoirs and used to inoculate the daughter plates. 10 μL of standardized inoculum was delivered into each well. This yielded a final cell concentration in the daughter plates of approximately 2.5×10^3 colony-forming units/mL. Plates were incubated at 35° C. for approximately 48 hr.
# (§6) Following incubation, microplates were viewed from the bottom using a plate viewer.
# C. albicans R303 = test: Mouse candidiasis infection model, C. albicans density in kidneys; format: in vivo, female CD-1 mice; details: for Difference from 24-hr control / Mean log10 CFU/kidneys (±SD) / Mean log10 CFU/kidneys (±SEM) / Difference from 24-h control: kidneys at 24 hr
# Procedure: The objective of these studies was to evaluate the efficacy of test compounds in the mouse candidiasis infection model.
# The strain, C. albicans R303 was transferred from frozen storage onto Sabauroud dextrose agar (SDA) plates and grown for ˜24 hr at 35° C. The inoculum was prepared by transferring colonies from the plate to phosphate buffered saline (PBS) and the concentration adjusted to 10^6 CFU/mL with the aid of a spectrophotometer. The stock was diluted 1:9 to prepare the inoculum. Prior to each run the concentration was verified using the dilution plate count method.
# The female CD-1 mice used in this study were obtained from Charles River Laboratories, Portage, MI. The animals were approximately seven-weeks-old at the start of the study and weighed about 16-26 g.
# In one approach, mice were made neutropenic with IP injections of cyclophosphamide (150 mg/kg in 10 mL/kg) at 4 and 1 day before inoculation. Each animal was inoculated with the appropriate concentration by injecting 0.1 mL of inoculum into a tail vein. The test compounds were administered IP at 2 hr after infection.
# The kidneys were collected from four mice in control group 1 (untreated) at 2 hr after infection, and from the remaining mice in the study at 24 hr after infection. Kidneys were removed aseptically from each mouse and were combined in a sterile tube. An aliquot (2 mL) of sterile PBS was added to each tube and the contents homogenized with a tissue homogenizer (Polytron 3100). Serial dilutions of the tissue homogenates were conducted and 0.1 mL aliquots were spread on SDA plates and the plates incubated at 35° C. overnight. The CFU/kidneys were determined from colony counts. Data were analyzed using one-way ANOVA with the Tukey-Kramer Multiple Comparisons Test (GraphPad InStat version 3.06, GraphPad Software, San Diego, Calif.).
# Treatments were administered at 2 hr after infection with 2.1×10^5 CFU/mL of the organism. Data are the means of four mice.
# Treatments were administered at 2 hr after infection with 6.4×10^5 CFU/mL of the organism. Data are the means of four mice.
# Treatments were administered at 2 hr after infection with 3.8×10^5 CFU/mL of the organism. Data are the means of four mice.
# Treatments were administered at 2 hr after infection with 3.8×10^5 CFU/rnL of the organism. Data are the means of four mice.
# A. flavus 626 ATCC 64025 = test: MIC by broth microdilution against A. flavus; format: cell-based; details: growth reduction of 50%
# Procedure: as §1, §2, §3, §4, §5, §6
# [2] = system: C. parapsilosis 630 ATCC 90018; test: MIC by broth microdilution against C. parapsilosis; format: cell-based
# Procedure: as §1, §2, §3, §4, §5, §6
# [3] = Candida albicans, ATCC90028, 48 h, 0% mouse serum
# [4] = First run, 1 mg/kg IP 2 hr after infection
# [5] = First run, 1 mg/kg IP 2 hr after infection, neutropenic mice
# [6] = Second run, 1 mg/kg IP 2 hr after infection
# [7] = Third run, 0.5 mg/kg IP 2 hr after infection
# [8] = Third run, 1.5 mg/kg IP 2 hr after infection
# [9] = Third run, 4.5 mg/kg IP 2 hr after infection
# [10] = Fourth run, 0.5 mg/kg IP 2 hr after infection
# [11] = Fourth run, 1.5 mg/kg IP 2 hr after infection
# [12] = Fourth run, 4.5 mg/kg IP 2 hr after infection
Compound,Difference from 24-hr control (C. albicans R303; [4]),Mean log10 CFU/kidneys (±SD) (C. albicans R303; [5]) [log10 CFU/kidneys],"MIC ([1]; 0% mouse serum, 48 hr) [µg/mL]","MIC ([1]; 50% mouse serum, 48 hr) [µg/mL]","MIC (A. flavus 626 ATCC 64025; 0% mouse serum, 48 hr) [µg/mL]","MIC (A. flavus 626 ATCC 64025; 50% mouse serum, 48 hr) [µg/mL]","MIC ([2]; 0% mouse serum, 48 hr) [µg/mL]","MIC ([2]; 50% mouse serum, 48 hr) [µg/mL]",also measured
"CCCCCOc1ccc(-c2ccc(-c3ccc(C(=O)N[C@H]4C[C@@H](O)[C@@H](O)NC(=O)[C@@H]5[C@@H](O)[C@@H](C)CN5C(=O)[C@H]([C@@H](C)O)NC(=O)[C@H]([C@H](O)[C@@H](O)c5ccc(O)cc5)NC(=O)[C@@H]5C[C@@H](O)CN5C(=O)[C@H]([C@@H](C)O)NC4=O)cc3)cc2)cc1 [Anidulafungin, anidulafungin, reference compound] ({pTerphenylCO(4''-OnC5H11)}-[Orn(4R-OH,5R-OH)]T[Hyp][hTyr(3S-OH,4S-OH)]T[Pro(3S-OH,4S-Me)]; lactam 1-C)",−1.68*** log10 CFU/kidneys,3.09 ± 0.61,–,–,–,–,–,–,"MIC [1, 3]: 0.03 µg/mL; MIC ([1]; Candida albicans, ATCC90028, 48 h, 50% mouse serum): 0.06 µg/mL; Difference from 24-hr control (C. albicans R303; [6]): −1.83*** log10 CFU/kidneys; Mean log10 CFU/kidneys (±SD) (C. albicans R303; [6]): 3.37 ± 0.72 log10 CFU/kidneys; Difference from 24-hr control (C. albicans R303; [7]): −0.47 ns log10 CFU/kidneys; Mean log10 CFU/kidneys (±SEM) (C. albicans R303; [7]): 4.41 ± 0.12 log10 CFU/kidneys; Difference from 24-hr control (C. albicans R303; [8]): −2.11*** log10 CFU/kidneys; Mean log10 CFU/kidneys (±SEM) (C. albicans R303; [8]): 2.77 ± 0.20 log10 CFU/kidneys; Difference from 24-hr control (C. albicans R303; [9]): −3.78*** log10 CFU/kidneys; Mean log10 CFU/kidneys (±SEM) (C. albicans R303; [9]): 1.10 ± 0.38 log10 CFU/kidneys; MIC (A. flavus 626 ATCC 64025; Aspergillus flavus, ATCC64025, 48 h, 0% mouse serum): < 0.015 µg/mL; MIC (A. flavus 626 ATCC 64025; Aspergillus flavus, ATCC64025, 48 h, 50% mouse serum): 0.03 µg/mL; MIC ([2]; Lodderomyces parapsilosis, ATCC90018, 48 h, 0% mouse serum): 2 µg/mL; MIC ([2]; Lodderomyces parapsilosis, ATCC90018, 48 h, 50% mouse serum): > 16 µg/mL"
"CC[C@H](C)C[C@H](C)CCCCCCCCC(=O)N[C@H]1C[C@@H](O)[C@@H](NCCN)NC(=O)[C@@H]2[C@@H](O)CCN2C(=O)[C@H]([C@H](O)CCN)NC(=O)[C@H]([C@H](O)[C@@H](O)c2ccc(O)cc2)NC(=O)[C@@H]2C[C@@H](O)CN2C(=O)[C@H]([C@@H](C)O)NC1=O [Caspofungin, caspofungin, reference compound]",−3.14*** log10 CFU/kidneys,1.63 ± 0.29,–,–,–,–,–,–,"MIC [1, 3]: 0.125 µg/mL; MIC ([1]; Candida albicans, ATCC90028, 50% mouse serum, 48 hr, read-out: MIC): 0.06 µg/mL; Difference from 24-h control (C. albicans R303; [10]): −4.88*** log10 CFU/kidneys; Mean log10 CFU/kidneys (±SEM) (C. albicans R303; [10]): 0.33 ± 0.33 log10 CFU/kidneys; Difference from 24-h control (C. albicans R303; [11]): −4.48*** log10 CFU/kidneys; Mean log10 CFU/kidneys (±SEM) (C. albicans R303; [11]): 0.73 ± 0.42 log10 CFU/kidneys; Difference from 24-h control (C. albicans R303; [12]): −5.20*** log10 CFU/kidneys; Mean log10 CFU/kidneys (±SEM) (C. albicans R303; [12]): 0.00 ± 0.00 log10 CFU/kidneys; Difference from 24-hr control (C. albicans R303; [6]): −3.59*** log10 CFU/kidneys; Mean log10 CFU/kidneys (±SD) (C. albicans R303; [6]): 1.61 ± 0.23 log10 CFU/kidneys; MIC (A. flavus 626 ATCC 64025; Aspergillus flavus, ATCC64025, 0% mouse serum, 48 hr, read-out: MIC): 0.06 µg/mL; MIC ([2]; Lodderomyces parapsilosis, ATCC90018, 48 h, 0% mouse serum, read-out: MIC): 0.5 µg/mL; MIC ([2]; Lodderomyces parapsilosis, ATCC90018, 48 h, 50% mouse serum, read-out: MIC): 2 µg/mL"
CCC(C)CC(C)CCCCCCCCC(=O)NC1CC(O)C(NCCNC(=O)OCCOC)NC(=O)C2C(O)CCN2C(=O)C(C(O)CCN)NC(=O)C(C(O)C(O)c2ccc(O)cc2)NC(=O)C2CC(O)CN2C(=O)C(C(C)O)NC1=O (stereo not drawn) [Compound 1],−0.13 ns log10 CFU/kidneys,4.65 ± 0.26,0.5,1,0.125,0.5,2,>16,"Difference from 24-hr control (C. albicans R303; First run, 5 mg/kg IP 2 hr after infection): −2.87*** log10 CFU/kidneys; Mean log10 CFU/kidneys (±SD) (C. albicans R303; First run, 5 mg/kg IP 2 hr after infection, neutropenic mice): 1.90 ± 0.21 log10 CFU/kidneys; Reduction of yeast density in kidneys (C. albicans R303; First run, 5 mg/kg dose, versus 24-hr infected control): 2.87 logs"
CCC(C)CC(C)CCCCCCCCC(=O)NC1CC(O)C(OCCOCCOCCOCCOC)NC(=O)C2C(O)CCN2C(=O)C(C(O)CC(N)=O)NC(=O)C(C(O)C(O)c2ccc(O)cc2)NC(=O)C2CC(O)CN2C(=O)C(C(C)O)NC1=O (stereo not drawn) [Compound 8],–,–,8,>16,0.5,2,>16,>16,–
CCC(C)CC(C)CCCCCCCCC(=O)NC1CC(O)C(OCCOCCOCCOCCOCCOCCOCCOC)NC(=O)C2C(O)CCN2C(=O)C(C(O)CC(N)=O)NC(=O)C(C(O)C(O)c2ccc(O)cc2)NC(=O)C2CC(O)CN2C(=O)C(C(C)O)NC1=O (stereo not drawn) [Compound 9],–,–,>16,>16,2,8,>16,>16,–
CCC(C)CC(C)CCCCCCCCC(=O)NC1CC(O)C(OCCCCCCOCCOCCOCCOCCOCCOCCOCCOC)NC(=O)C2C(O)CCN2C(=O)C(C(O)CC(N)=O)NC(=O)C(C(O)C(O)c2ccc(O)cc2)NC(=O)C2CC(O)CN2C(=O)C(C(C)O)NC1=O (stereo not drawn) [Compound 10],–,–,>16,>16,4,16,>16,>16,–
"CC[C@H](C)C[C@H](C)CCCCCCCCC(=O)N[C@H]1C[C@@H](O)[C@@H](O)NC(=O)[C@@H]2[C@@H](O)CCN2C(=O)[C@H]([C@H](O)CC(N)=O)NC(=O)[C@H]([C@H](O)[C@@H](O)c2ccc(O)cc2)NC(=O)[C@@H]2C[C@@H](O)CN2C(=O)[C@H]([C@@H](C)O)NC1=O [Pneumocandin B0, pneumocandin B0, reference compound] ({Tetradecanoyl(10R,12S-Me2)}-[Orn(4R-OH,5R-OH)]T[Hyp][hTyr(3S-OH,4S-OH)][Gln(3R-OH)][Pro(3S-OH)]; lactam 1-C)",–,–,0.25,4,1,0.25,8,>16,–
